According to patent US20230278972A1, “SUBSTITUTED HALOALKYL SULFONANILIDE HERBICIDES” (FMC Corporation, priority 2020, published 2023):

Experiments:
Assay type in all cases: in vivo
[1] = test system: ragweed (common ragweed, Ambrosia artemisiifolia); assay: Test A1 postemergence, ragweed; settings: Postemergence
How it was run: (§1)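 Herbicidal response was scored on plants treated either preemergence, by directed spray onto soil of a loam–sand blend after sowing, or postemergence on potted plants at the one- to two-leaf stage, 2–10 cm high. Test chemicals were carried in a non-phytotoxic solvent mix with surfactant.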

[2] = test system: goosegrass (Eleusine indica); assay: Test A1 preemergence, goosegrass
How it was run: (§2)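 Pre: seeds in loam/sand blend, directed soil spray. Post: potted plants, same soil, 2–10 cm, 1–2 leaf stage. Chemicals in non-phytotoxic solvent + surfactant for both.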

[3] = test system: ragweed (common ragweed, Ambrosia artemisiifolia); assay: Test A1 preemergence, ragweed
How it was run: as §2

[4] = test system: Foxtail, Giant (giant foxtail, Setaria faberi); assay: Test A1 postemergence, Foxtail, Giant; settings: Postemergence
How it was run: (§3)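 Both timings started from seed in a loam-sand blend. Preemergence pots got a directed soil application immediately; postemergence pots were sprayed when seedlings had one or two leaves and stood 2–10 cm. Each compound was prepared in a non-phytotoxic solvent plus surfactant.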

[5] = test system: goosegrass (Eleusine indica); assay: Test A1 postemergence, goosegrass; settings: Postemergence
How it was run: as §3

[6] = test system: Pigweed, Palmer (palmer amaranth, palmer pigweed, Amaranthus palmeri); assay: Test A1 postemergence, Pigweed, Palmer; settings: Postemergence
How it was run: as §1

[7] = test system: corn (Zea mays); assay: Test A1 preemergence, corn
How it was run: as §1

[8] = test system: barnyardgrass (Echinochloa crus-galli); assay: Test B1 flooded paddy test, barnyardgrass; settings: 250 g ai/ha, Flood, applied to paddy water, 2-leaf stage, visually evaluated after 10 to 14 days
Excerpt: (§4) A dash (-) response means no test result.

[9] = test system: rice (Oryza sativa); assay: Test B1 flooded paddy test, rice; settings: 250 g ai/ha, Flood, applied to paddy water, 2-leaf stage, visually evaluated after 10 to 14 days
Excerpt: as §4

[10] = test system: horseweed (Erigeron canadensis); assay: Test A1 postemergence, horseweed; settings: Postemergence
How it was run: as §3

[11] = test system: soybean (Glycine max); assay: Test A1 postemergence, soybean; settings: Postemergence
How it was run: as §3

[12] = test system: ducksalad (Heteranthera limosa); assay: Test B1 flooded paddy test, ducksalad; settings: 250 g ai/ha, Flood, applied to paddy water, 2-leaf stage, visually evaluated after 10 to 14 days
Excerpt: as §4

[13] = test system: kochia (Bassia scoparia); assay: Test A1 postemergence, kochia; settings: Postemergence
How it was run: as §3

[14] = test system: kochia (Bassia scoparia); assay: Test A1 preemergence, kochia
How it was run: as §2

[15] = test system: blackgrass (Alopecurus myosuroides); assay: Test A1 preemergence, blackgrass
How it was run: as §2

[16] = test system: Ryegrass, Italian (Italian ryegrass, Lolium multiflorum); assay: Test A1 preemergence, Ryegrass, Italian
How it was run: as §2

[17] = test system: wheat (Triticum aestivum); assay: Test A1 preemergence, wheat
How it was run: as §2

[18] = test system: Pigweed, Palmer (palmer amaranth, palmer pigweed, Amaranthus palmeri); assay: Test A1 preemergence, Pigweed, Palmer
How it was run: as §2

[19] = test system: blackgrass (Alopecurus myosuroides); assay: Test A1 postemergence, blackgrass; settings: Postemergence, 0 to 100 scale (0 no effect, 100 complete control)
How it was run: as §3

[20] = test system: Oat, Wild (wild oat, Avena fatua); assay: Test A1 postemergence, Oat, Wild; settings: Postemergence
How it was run: as §1

[21] = test system: corn (Zea mays); assay: Test A1 postemergence, corn; settings: Postemergence
How it was run: as §2

[22] = test system: Oat, Wild (wild oat, Avena fatua); assay: Test A1 preemergence, Oat, Wild
How it was run: as §2

[23] = test system: wheat (Triticum aestivum); assay: Test A1 postemergence, wheat; settings: Postemergence
How it was run: as §3

[24] = test system: soybean (Glycine max); assay: Test A1 preemergence, soybean
How it was run: as §2

[25] = test system: Ryegrass, Italian (Italian ryegrass, Lolium multiflorum); assay: Test A1 postemergence, Ryegrass, Italian; settings: Postemergence
How it was run: as §3

[26] = test system: galium (catchweed bedstraw, Galium aparine); assay: Test A1 postemergence, galium; settings: Postemergence
How it was run: as §3

[27] = test system: Foxtail, Giant (giant foxtail, Setaria faberi); assay: Test A1 preemergence, Foxtail, Giant
How it was run: as §2

[28] = 31 g ai/ha, 0 to 100 scale (0 no effect, 100 complete control), 10 days
[29] = 31 g ai/ha, 0 to 100 scale (0 no effect, 100 complete control)
[30] = 125 g ai/ha, 0 to 100 scale, 0 no effect, 100 complete control

In the case of `Cc1cc(C)c(C2=NOC(OCC(C)C)C2)cc1NS(=O)(=O)C(F)(F)F` (stereo not drawn) [Compound 322], the “Plant response rating, Ragweed” value [1, 28] is reported as 70, the “Plant response rating, Ragweed” value ([1]; 125 g ai/ha, 0 to 100 scale) is reported as 80 and the “Plant response rating, Goosegrass” value [2, 29] is reported as 0. The “Plant response rating, Goosegrass” value [2, 30] was 90, the “Plant response rating, Ragweed” value [3, 29] was 20 and the “Plant response rating, Ragweed” value [3, 30] was 30. The “Plant response rating, Foxtail, Giant” value [4, 28] was 0, the “Plant response rating, Foxtail, Giant” value ([4]; 125 g ai/ha, 0 to 100 scale) was 40 and the “Plant response rating, Goosegrass” value [5, 28] was 20. For the same molecule, the “Plant response rating, Goosegrass” value ([5]; 125 g ai/ha, 0 to 100 scale) was 50, the “Plant response rating, Pigweed, Palmer” value [6, 28] was 0 and the “Plant response rating, Pigweed, Palmer” value ([6]; 125 g ai/ha, 0 to 100 scale) was 50. For the same molecule, the “Plant response rating, Corn” value [7, 29] was 0, the “Plant response rating, Corn” value [7, 30] was 30 and the “Plant response rating, Barnyardgrass (0 to 100 scale, 0 is no effect, 100 is complete control)” value [8] was 55. The “Plant response rating, Rice (0 to 100 scale, 0 is no effect, 100 is complete control)” value [9] was 0, the “Plant response rating, Horseweed” value [10, 28] was 0 and the “Plant response rating, Horseweed” value ([10]; 125 g ai/ha, 0 to 100 scale) was 40. For the same molecule, the “Plant response rating, Soybean” value [11, 28] was 20, the “Plant response rating, Soybean” value ([11]; 125 g ai/ha, 0 to 100 scale) was 30 and the “Plant response rating, Ducksalad (0 to 100 scale, 0 is no effect, 100 is complete control)” value [12] was 0. The “Plant response rating, Kochia” value [13, 28] was 10, the “Plant response rating, Kochia” value ([13]; 125 g ai/ha, 0 to 100 scale) was 30 and the “Plant response rating, Kochia” value [14, 29] was 0. The “Plant response rating, Kochia” value [14, 30] was 20, the “Plant response rating, Blackgrass” value [15, 29] was 0 and the “Plant response rating, Blackgrass” value [15, 30] was 70. The “Plant response rating, Ryegrass, Italian” value [16, 29] was 60, the “Plant response rating, Ryegrass, Italian” value [16, 30] was 90 and the “Plant response rating, Wheat” value [17, 29] was 0. For the same molecule, the “Plant response rating, Wheat” value [17, 30] was 50, the “Plant response rating, Pigweed, Palmer” value [18, 29] was 40 and the “Plant response rating, Pigweed, Palmer” value [18, 30] was 90. For the same molecule, the “Plant response rating, Blackgrass” value ([19]; 31 g ai/ha, 10 days) was 20, the “Plant response rating, Blackgrass” value ([19]; 125 g ai/ha) was 50 and the “Plant response rating, Oat, Wild” value [20, 28] was 0. For the same molecule, the “Plant response rating, Oat, Wild” value ([20]; 125 g ai/ha, 0 to 100 scale) was 0, the “Plant response rating, Corn” value [21, 28] was 0 and the “Plant response rating, Corn” value ([21]; 125 g ai/ha, 0 to 100 scale) was 0. For the same molecule, the “Plant response rating, Oat, Wild” value [22, 29] was 0, the “Plant response rating, Oat, Wild” value [22, 30] was 30 and the “Plant response rating, Wheat” value [23, 28] was 0. The “Plant response rating, Wheat” value ([23]; 125 g ai/ha, 0 to 100 scale) was 30, the “Plant response rating, Soybean” value [24, 29] was 0 and the “Plant response rating, Soybean” value [24, 30] was 0. The “Plant response rating, Ryegrass, Italian” value [25, 28] was 0, the “Plant response rating, Ryegrass, Italian” value ([25]; 125 g ai/ha, 0 to 100 scale) was 40 and the “Plant response rating, Galium” value [26, 28] was 40. The “Plant response rating, Galium” value ([26]; 125 g ai/ha, 0 to 100 scale) was 70, the “Plant response rating, Foxtail, Giant” value [27, 29] was 40 and the “Plant response rating, Foxtail, Giant” value [27, 30] was 80.

In the case of `Cc1c(C(=O)N2C[C@@H](C)O[C@@H](C)C2)cc(N(COC(=O)C(C)(C)C)S(=O)(=O)C(F)(F)F)c(C)c1C` [Compound 331], the “Plant response rating, Ragweed” value [1, 28] is reported as 70, the “Plant response rating, Ragweed” value ([1]; 125 g ai/ha, 0 to 100 scale) is reported as 80 and the “Plant response rating, Goosegrass” value [2, 29] is reported as 0. The “Plant response rating, Goosegrass” value [2, 30] was 90, the “Plant response rating, Ragweed” value [3, 29] was 0 and the “Plant response rating, Ragweed” value [3, 30] was 90. The “Plant response rating, Foxtail, Giant” value [4, 28] was 20, the “Plant response rating, Foxtail, Giant” value ([4]; 125 g ai/ha, 0 to 100 scale) was 80 and the “Plant response rating, Goosegrass” value [5, 28] was 0. For the same molecule, the “Plant response rating, Goosegrass” value ([5]; 125 g ai/ha, 0 to 100 scale) was 50, the “Plant response rating, Pigweed, Palmer” value [6, 28] was 0 and the “Plant response rating, Pigweed, Palmer” value ([6]; 125 g ai/ha, 0 to 100 scale) was 20. The “Plant response rating, Corn” value [7, 29] was 0, the “Plant response rating, Corn” value [7, 30] was 0 and the “Plant response rating, Barnyardgrass (0 to 100 scale, 0 is no effect, 100 is complete control)” value [8] was 98. For the same molecule, the “Plant response rating, Rice (0 to 100 scale, 0 is no effect, 100 is complete control)” value [9] was 0, the “Plant response rating, Horseweed” value [10, 28] was 70 and the “Plant response rating, Horseweed” value ([10]; 125 g ai/ha, 0 to 100 scale) was 80. The “Plant response rating, Soybean” value [11, 28] was 60, the “Plant response rating, Soybean” value ([11]; 125 g ai/ha, 0 to 100 scale) was 70 and the “Plant response rating, Ducksalad (0 to 100 scale, 0 is no effect, 100 is complete control)” value [12] was 80. The “Plant response rating, Kochia” value [13, 28] was 0, the “Plant response rating, Kochia” value ([13]; 125 g ai/ha, 0 to 100 scale) was 10 and the “Plant response rating, Kochia” value [14, 29] was 0. The “Plant response rating, Kochia” value [14, 30] was 20, the “Plant response rating, Blackgrass” value [15, 29] was 0 and the “Plant response rating, Blackgrass” value [15, 30] was 0. The “Plant response rating, Ryegrass, Italian” value [16, 29] was 0, the “Plant response rating, Ryegrass, Italian” value [16, 30] was 0 and the “Plant response rating, Wheat” value [17, 29] was 0. The “Plant response rating, Wheat” value [17, 30] was 0, the “Plant response rating, Pigweed, Palmer” value [18, 29] was 0 and the “Plant response rating, Pigweed, Palmer” value [18, 30] was 30. For the same molecule, the “Plant response rating, Blackgrass” value ([19]; 31 g ai/ha, 10 days) was 0, the “Plant response rating, Blackgrass” value ([19]; 125 g ai/ha) was 50 and the “Plant response rating, Oat, Wild” value [20, 28] was 0. For the same molecule, the “Plant response rating, Oat, Wild” value ([20]; 125 g ai/ha, 0 to 100 scale) was 20, the “Plant response rating, Corn” value [21, 28] was 10 and the “Plant response rating, Corn” value ([21]; 125 g ai/ha, 0 to 100 scale) was 50. The “Plant response rating, Oat, Wild” value [22, 29] was 0, the “Plant response rating, Oat, Wild” value [22, 30] was 0 and the “Plant response rating, Wheat” value [23, 28] was 0. The “Plant response rating, Wheat” value ([23]; 125 g ai/ha, 0 to 100 scale) was 50, the “Plant response rating, Soybean” value [24, 29] was 0 and the “Plant response rating, Soybean” value [24, 30] was 10. The “Plant response rating, Ryegrass, Italian” value [25, 28] was 10, the “Plant response rating, Ryegrass, Italian” value ([25]; 125 g ai/ha, 0 to 100 scale) was 50 and the “Plant response rating, Galium” value [26, 28] was 60. For the same molecule, the “Plant response rating, Galium” value ([26]; 125 g ai/ha, 0 to 100 scale) was 90, the “Plant response rating, Foxtail, Giant” value [27, 29] was 0 and the “Plant response rating, Foxtail, Giant” value [27, 30] was 70.
